Earlier results in US20250375409A1, “Treatment of REM Behavior Disorder” (Vanda Pharmaceuticals Inc., priority 2024, published 2025).

Key:
[1] = following an oral dose; large first pass effect

For CCC(=O)NCC[C@@H]1CCc2ccc3c(c21)CCO3 [ramelteon], the mean systemic availability [1] is given as “less than 2%”, the “RBD outcome in open label trial” value (Esaki et al., 12 patients with idiopathic RBD, 8 mg given 30 minutes before bedtime) is given as “trend towards improvement” and the “RBD symptoms, including the RBD severity scale (RBDSS)” value (Nomura et al. 2013, 8 mg, two patients with RBD in association with Parkinsonian syndromes) is given as “improvement of their RBD symptoms”. The “RBD outcome in patients with Parkinson's disease” value (patients with Parkinson's disease, with or without RBD, after treatment) was “statistically significant RBD improvement”.
